In ChEMBL document CHEMBL2390919, “Investigation of the role of linker moieties in bifunctional tacrine hybrids” (Bioorg Med Chem, 2013):
The source made the active and inactive calls. No cut-off for these calls is given here.

What was measured:
[1] = biological target: T1, Acetylcholinesterase (Electrophorus electricus, UniProt O42275)
Description: Inhibition of electric eel AChE using acetylthiocholine as substrate preincubated for 10 mins prior to substrate addition measured every 30 seconds for 30 mins by Ellman's method

[2] = biological target: T1, Acetylcholinesterase; remark: listed apart in the source
Description: Inhibition of electric eel AChE preincubated for 30 mins prior to horseradish peroxidase, H2O2 and DETAPAC addition measured for 20 mins under ROS condition by Muraoka and Miura method

[3] = biological target: Acetylcholinesterase (Electrophorus electricus) (UniProt O42275); assay: Ratio of tacrine IC50 to compound IC50 for electric eel AChE
[4] = biological target: Acetylcholinesterase (Electrophorus electricus) (UniProt O42275); assay: Non competitive inhibition of electric eel AChE using acetylthiocholine as substrate by Lineweaver-Burk plot analysis
[5] = biological target: Acetylcholinesterase (Electrophorus electricus) (UniProt O42275); assay: Ratio of tacrine IC50 to compound IC50 for electric eel AChE in presence of horseradish peroxidase and H2O2 and DETAPAC

T1 sequence (O42275 whole entry): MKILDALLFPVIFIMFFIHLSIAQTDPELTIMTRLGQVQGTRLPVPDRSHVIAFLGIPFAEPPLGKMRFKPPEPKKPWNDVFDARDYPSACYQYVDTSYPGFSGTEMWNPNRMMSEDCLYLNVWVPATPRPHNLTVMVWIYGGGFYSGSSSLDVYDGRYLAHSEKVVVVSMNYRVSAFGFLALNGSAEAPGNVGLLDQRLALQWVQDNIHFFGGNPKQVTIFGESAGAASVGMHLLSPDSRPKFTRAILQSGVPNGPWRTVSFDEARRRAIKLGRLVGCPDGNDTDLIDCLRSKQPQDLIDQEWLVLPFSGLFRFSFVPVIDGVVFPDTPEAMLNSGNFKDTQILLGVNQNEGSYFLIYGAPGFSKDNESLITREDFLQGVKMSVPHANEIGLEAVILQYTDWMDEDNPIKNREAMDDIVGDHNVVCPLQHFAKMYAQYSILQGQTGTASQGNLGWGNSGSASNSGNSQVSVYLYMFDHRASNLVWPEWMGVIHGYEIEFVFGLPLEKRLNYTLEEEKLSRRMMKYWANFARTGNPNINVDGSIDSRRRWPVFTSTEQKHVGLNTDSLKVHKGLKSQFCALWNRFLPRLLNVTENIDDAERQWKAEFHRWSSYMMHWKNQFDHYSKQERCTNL
Chain of Acetylcholinesterase (Electrophorus electricus) (O42275 24-633 limits assumed): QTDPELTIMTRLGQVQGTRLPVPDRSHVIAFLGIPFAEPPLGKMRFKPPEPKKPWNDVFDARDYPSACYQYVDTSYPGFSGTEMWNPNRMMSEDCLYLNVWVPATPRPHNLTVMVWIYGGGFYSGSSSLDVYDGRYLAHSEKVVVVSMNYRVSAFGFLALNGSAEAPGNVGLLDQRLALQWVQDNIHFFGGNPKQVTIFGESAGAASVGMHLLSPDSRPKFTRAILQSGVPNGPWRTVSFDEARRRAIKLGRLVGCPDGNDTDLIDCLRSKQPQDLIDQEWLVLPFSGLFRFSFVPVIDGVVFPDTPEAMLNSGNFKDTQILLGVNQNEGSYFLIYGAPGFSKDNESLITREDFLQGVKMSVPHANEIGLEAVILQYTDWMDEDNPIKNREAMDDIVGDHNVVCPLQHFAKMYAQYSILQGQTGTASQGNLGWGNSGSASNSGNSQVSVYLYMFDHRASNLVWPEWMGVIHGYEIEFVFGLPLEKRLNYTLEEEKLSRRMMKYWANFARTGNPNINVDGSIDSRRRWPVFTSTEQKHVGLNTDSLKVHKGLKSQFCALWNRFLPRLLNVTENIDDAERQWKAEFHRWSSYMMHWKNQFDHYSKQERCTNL

## Cc1cccc(Nc2ccccc2C(=O)NCCCCCC(=O)NCCCCCCCNc2c3c(nc4cc(Cl)ccc24)CCCC3)c1C
[1]
  IC50: 11.1 nM
[2]
  IC50: 13.4 nM

## CCCCCCNc1c2c(nc3cc(Cl)ccc13)CCCC2
[1]
  IC50: 65.3 nM
[3]
  Ratio IC50: < 5
[2]
  IC50: 26.2 nM

## NCCCCCCCNc1c2c(nc3cc(Cl)ccc13)CCCC2
[1]
  IC50: 5.37 nM
[2]
  IC50: 15.1 nM

## Cc1cccc(Nc2ccccc2C(=O)NCCC(=O)NCCCCNc2c3c(nc4cc(Cl)ccc24)CCCC3)c1C
[1]
  IC50: 2470 nM
[2]
  IC50: 33 nM

## Cc1cccc(Nc2ccccc2C(=O)NCCCC(=O)NCCCCCCCNc2c3c(nc4cc(Cl)ccc24)CCCC3)c1C
[1]
  IC50: 7.91 nM
[2]
  IC50: 6.55 nM

## Cc1cccc(Nc2ccccc2C(=O)NCCCC(=O)NCCCCNc2c3c(nc4cc(Cl)ccc24)CCCC3)c1C
[1]
  IC50: 13.6 nM
[2]
  IC50: 12.4 nM

## Cc1cccc(Nc2ccccc2C(=O)NCCC(=O)NCCCCCCNc2c3c(nc4cc(Cl)ccc24)CCCC3)c1C
[1]
  IC50: 1.14 nM
[2]
  IC50: 2.96 nM

## CCCCCNc1c2c(nc3cc(Cl)ccc13)CCCC2
[1]
  IC50: 26.3 nM
[3]
  Ratio IC50: < 5
[2]
  IC50: 43.2 nM

## CCCCCCCNc1c2c(nc3cc(Cl)ccc13)CCCC2
[1]
  IC50: 16 nM
[3]
  Ratio IC50: 3
[4]
  inhibition: Active
[2]
  IC50: 2.03 nM

## Cc1cccc(Nc2ccccc2C(=O)NCCCCCCNc2c3c(nc4cc(Cl)ccc24)CCCC3)c1C
[1]
  IC50: 7230 nM
[2]
  IC50: 1.02 nM

## CCCCCCCCCNc1c2c(nc3cc(Cl)ccc13)CCCC2
[1]
  IC50: 2.27 nM
[3]
  Ratio IC50: 20
[2]
  IC50: 16.9 nM

## Cc1cccc(Nc2ccccc2C(=O)NCCCCCC(=O)NCCCCCCNc2c3c(nc4cc(Cl)ccc24)CCCC3)c1C
[1]
  IC50: 2.94 nM
[2]
  IC50: 7.39 nM

## NCCCCCCCCCCNc1c2c(nc3cc(Cl)ccc13)CCCC2
[1]
  IC50: 0.932 nM
[3]
  Ratio IC50: 50
[5]
  Ratio IC50: 30
[2]
  IC50: 2.18 nM

## Cc1cccc(Nc2ccccc2C(=O)NCCC(=O)NCCCCCCCNc2c3c(nc4cc(Cl)ccc24)CCCC3)c1C
[1]
  IC50: 6.67 nM
[2]
  IC50: 10 nM

## Cc1cccc(Nc2ccccc2C(=O)NCCCCCCCCCNc2c3c(nc4cc(Cl)ccc24)CCCC3)c1C
[1]
  IC50: 6.94 nM
[2]
  IC50: 6.72 nM

## Cc1cccc(Nc2ccccc2C(=O)NCCCCCC(=O)NCCCCNc2c3c(nc4cc(Cl)ccc24)CCCC3)c1C
[1]
  IC50: 37.4 nM
[2]
  IC50: 0.299 nM

## Cc1cccc(Nc2ccccc2C(=O)NCCCC(=O)NCCCCCCNc2c3c(nc4cc(Cl)ccc24)CCCC3)c1C
[1]
  IC50: 41.7 nM
[2]
  IC50: 15.6 nM

## OCCCCCNc1c2c(nc3cc(Cl)ccc13)CCCC2
[1]
  IC50: 72.5 nM
[2]
  IC50: 1520 nM

## NCCCCCCNc1c2c(nc3cc(Cl)ccc13)CCCC2
[1]
  IC50: 11.1 nM
[4]
  inhibition: Active
[2]
  IC50: 7.85 nM

## NCCCCNc1c2c(nc3cc(Cl)ccc13)CCCC2
[1]
  IC50: 38 nM
[2]
  IC50: 65.8 nM

## Cc1cccc(Nc2ccccc2C(=O)NCCCCCCCNc2c3c(nc4cc(Cl)ccc24)CCCC3)c1C
[1]
  IC50: 1380 nM
[2]
  IC50: 29.8 nM

## NCCCCCCCCCCCCNc1c2c(nc3cc(Cl)ccc13)CCCC2
[1]
  IC50: 0.648 nM
[3]
  Ratio IC50: 50
[5]
  Ratio IC50: 30
[2]
  IC50: 1.44 nM

## NCCCCCCCCCNc1c2c(nc3cc(Cl)ccc13)CCCC2
[1]
  IC50: 0.604 nM
[3]
  Ratio IC50: 50
[4]
  inhibition: Active
[5]
  Ratio IC50: 30
[2]
  IC50: 1.22 nM

## OCCCCCCNc1c2c(nc3cc(Cl)ccc13)CCCC2
[1]
  IC50: 42.4 nM
[4]
  inhibition: Active
[2]
  IC50: 2.47 nM

## NCCCCCCCCNc1c2c(nc3cc(Cl)ccc13)CCCC2
[1]
  IC50: 1.14 nM
[3]
  Ratio IC50: 50
[2]
  IC50: 293 nM

## Cc1cccc(Nc2ccccc2C(=O)NCCCCCCCCCCNc2c3c(nc4cc(Cl)ccc24)CCCC3)c1C
[1]
  IC50: 0.776 nM
[2]
  IC50: 1.85 nM

## Cc1cccc(Nc2ccccc2C(=O)NCCCCCCCCNc2c3c(nc4cc(Cl)ccc24)CCCC3)c1C
[1]
  IC50: 0.495 nM
[2]
  IC50: 1.49 nM

## CCCCCCCCNc1c2c(nc3cc(Cl)ccc13)CCCC2
[1]
  IC50: 19.6 nM
[3]
  Ratio IC50: < 5
[2]
  IC50: 7.95 nM

## Cc1cccc(Nc2ccccc2C(=O)NCCCCCCCCCCCCNc2c3c(nc4cc(Cl)ccc24)CCCC3)c1C
[1]
  IC50: 2360 nM
[2]
  IC50: 16.2 nM

## CCCCCCCCCCNc1c2c(nc3cc(Cl)ccc13)CCCC2
[1]
  IC50: 5.17 nM
[3]
  Ratio IC50: 10
[2]
  IC50: 252 nM

## NCCCCCNc1c2c(nc3cc(Cl)ccc13)CCCC2
[1]
  IC50: 51 nM
[2]
  IC50: 938 nM
